Experimental data reported in paper PMC10418725, “Trypsin from Pyloric Caeca of Asian Seabass: Purification, Characterization, and Its Use in the Hydrolysis of Acid-Soluble Collagen” (Foods, 2023).

Test system: purified trypsin (PT) from the pyloric caeca of Asian seabass
Test: 4-nitroaniline release, A410; Lineweaver-Burk
Assay type: biochemical, Lates calcarifer
Conditions: 30 °C, optimal pH (8.5) per Table 3 footnote; free enzyme; b65 text prints 0.0078 (no unit)

## NC(N)=NCCCC(NC(=O)c1ccccc1)C(=O)Nc1ccc([N+](=O)[O-])cc1 (stereo not shown) [BAPNA]
  Km: 78 µM
